Reference: patent publication US11331299B2, “Medicinal use of serrulatane diterpenes” (The University of Sydney, priority 2016, dated 2022)

Key:
Experiment in all cases: biochemical
enzymes (Bioprint panel) [1] = target: enzymes (Bioprint panel) (Homo sapiens, UniProt P06213); conditions: IRK (h) (InsR); 10 μM; read-out: % Inhibition of Control Values
enzymes (Bioprint panel) [2] = target: enzymes (Bioprint panel) (Homo sapiens, UniProt Q13370); conditions: PDE3B (h); 10 μM; read-out: % Inhibition of Control Values
enzymes (Bioprint panel) [3] = target: enzymes (Bioprint panel) (Homo sapiens, UniProt Q9BYF1); conditions: ACE-2 (h); 10 μM; read-out: % Inhibition of Control Values
enzymes (Bioprint panel) [4] = target: enzymes (Bioprint panel) (Rattus norvegicus, UniProt P21396); conditions: MAO-A (antagonist radioligand); 10 μM; read-out: % Inhibition of Control Values
enzymes (Bioprint panel) [5] = target: enzymes (Bioprint panel) (Homo sapiens, UniProt P07948); conditions: Lyn A kinase (h); 10 μM; read-out: % Inhibition of Control Values
Chain of enzymes (Bioprint panel) (Homo sapiens, UniProt P07948) (P07948 whole entry): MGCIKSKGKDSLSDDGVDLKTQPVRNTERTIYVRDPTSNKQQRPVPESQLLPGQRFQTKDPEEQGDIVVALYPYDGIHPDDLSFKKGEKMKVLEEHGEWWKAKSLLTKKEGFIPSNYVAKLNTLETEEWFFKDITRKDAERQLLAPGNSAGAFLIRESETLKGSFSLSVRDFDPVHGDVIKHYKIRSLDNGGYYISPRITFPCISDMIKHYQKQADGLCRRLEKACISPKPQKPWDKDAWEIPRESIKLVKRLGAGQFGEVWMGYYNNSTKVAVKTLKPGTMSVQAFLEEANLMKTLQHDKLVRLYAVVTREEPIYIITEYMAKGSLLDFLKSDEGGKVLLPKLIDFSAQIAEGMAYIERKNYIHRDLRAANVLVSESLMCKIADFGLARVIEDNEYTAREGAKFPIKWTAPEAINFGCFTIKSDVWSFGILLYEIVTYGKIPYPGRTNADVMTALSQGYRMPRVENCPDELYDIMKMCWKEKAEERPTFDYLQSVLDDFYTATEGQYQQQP

enzymes (Bioprint panel) [6] = target: enzymes (Bioprint panel) (Homo sapiens, UniProt P22303); conditions: acetylcholinesterase (h); 10 μM; read-out: % Inhibition of Control Values
Chain of enzymes (Bioprint panel) (Homo sapiens, UniProt P22303) (P22303 32-614): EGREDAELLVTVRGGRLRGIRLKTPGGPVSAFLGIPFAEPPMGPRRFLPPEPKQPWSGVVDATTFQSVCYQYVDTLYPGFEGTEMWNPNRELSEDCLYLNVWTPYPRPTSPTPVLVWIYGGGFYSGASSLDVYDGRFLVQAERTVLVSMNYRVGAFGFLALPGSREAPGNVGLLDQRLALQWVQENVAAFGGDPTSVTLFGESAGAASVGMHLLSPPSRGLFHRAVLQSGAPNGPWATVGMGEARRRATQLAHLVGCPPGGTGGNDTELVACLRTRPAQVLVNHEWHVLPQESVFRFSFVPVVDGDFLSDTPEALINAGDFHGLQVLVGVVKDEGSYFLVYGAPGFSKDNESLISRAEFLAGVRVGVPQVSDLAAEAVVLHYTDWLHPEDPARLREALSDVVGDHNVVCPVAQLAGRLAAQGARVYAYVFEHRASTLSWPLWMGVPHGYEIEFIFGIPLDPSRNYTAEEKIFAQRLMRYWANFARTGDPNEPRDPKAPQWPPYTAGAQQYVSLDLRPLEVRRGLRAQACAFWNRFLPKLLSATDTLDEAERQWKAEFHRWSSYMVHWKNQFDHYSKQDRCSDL

enzymes (Bioprint panel) [7] = conditions: COMT (catechol- O-methyl transferase); 10 μM
enzymes (Bioprint panel) [8] = target: enzymes (Bioprint panel) (Homo sapiens, UniProt P14780); conditions: MMP-9 (h); 10 μM; read-out: % Inhibition of Control Values
enzymes (Bioprint panel) [9] = target: T1, enzymes (Bioprint panel) (UniProt A0ABM2YAB8); conditions: MT3 (ML2) (agonist radioligand); 10 μM
T1 construct: other: MT3 (ML2) (agonist radioligand); 10 μM

enzymes (Bioprint panel) [10] = target: enzymes (Bioprint panel) (Homo sapiens, UniProt P28482); conditions: ERK2 (h) (P42mapk); 10 μM; read-out: % Inhibition of Control Values
[11] = target: T2, receptors (Bioprint panel) (Homo sapiens, UniProt P30556); assay type: binding; conditions: A[…] AT1 (h) (antagonist radioligand); 10 μM; read-out: % Inhibition of Control Specific Binding
T2 construct: other: ANGIOTENSIN II AT1 (h) (antagonist radioligand); 10 μM

[12] = target: receptors (Bioprint panel) (Homo sapiens, UniProt P14416); assay type: binding; conditions: DOPAMINE D2S (h) (agonist radioligand); 10 μM; read-out: % Inhibition of Control Specific Binding
[13] = target: receptors (Bioprint panel) (Homo sapiens, UniProt Q9UKP6); assay type: binding; conditions: read-out: % Inhibition of Control Specific Binding
[14] = target: receptors (Bioprint panel) (Homo sapiens, UniProt P32239); assay type: binding; conditions: CHOLECYSTOKININ CCK2 (CCKB) (h) (agonist radioligand); 10 μM; read-out: % Inhibition of Control Specific Binding
[15] = target: receptors (Bioprint panel) (Homo sapiens, UniProt P41143); assay type: binding; conditions: OPIOD & OPIOID-LIKE delta (DOP) (h) (agonist radioligand); 10 μM; read-out: % Inhibition of Control Specific Binding
Chain of receptors (Bioprint panel) (Homo sapiens, UniProt P41143) (P41143 whole entry): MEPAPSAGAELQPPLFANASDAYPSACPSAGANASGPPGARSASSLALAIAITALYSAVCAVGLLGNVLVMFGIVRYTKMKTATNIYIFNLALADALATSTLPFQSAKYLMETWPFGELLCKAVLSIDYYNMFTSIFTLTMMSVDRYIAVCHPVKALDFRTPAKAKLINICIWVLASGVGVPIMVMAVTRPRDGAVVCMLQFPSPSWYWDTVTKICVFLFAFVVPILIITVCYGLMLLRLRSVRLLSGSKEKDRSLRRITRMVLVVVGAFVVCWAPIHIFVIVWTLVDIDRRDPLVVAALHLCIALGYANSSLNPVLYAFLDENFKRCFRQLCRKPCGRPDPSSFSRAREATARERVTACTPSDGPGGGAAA

[16] = target: receptors (Bioprint panel) (Homo sapiens, UniProt P28335); assay type: binding; conditions: read-out: % Inhibition of Control Specific Binding
[17] = target: receptors (Bioprint panel) (Homo sapiens, UniProt P35348); assay type: binding; conditions: […] alpha 1A (h) (antagonist radioligand); 10 μM; read-out: % Inhibition of Control Specific Binding
Chain of receptors (Bioprint panel) (Homo sapiens, UniProt P35348) (P35348 whole entry): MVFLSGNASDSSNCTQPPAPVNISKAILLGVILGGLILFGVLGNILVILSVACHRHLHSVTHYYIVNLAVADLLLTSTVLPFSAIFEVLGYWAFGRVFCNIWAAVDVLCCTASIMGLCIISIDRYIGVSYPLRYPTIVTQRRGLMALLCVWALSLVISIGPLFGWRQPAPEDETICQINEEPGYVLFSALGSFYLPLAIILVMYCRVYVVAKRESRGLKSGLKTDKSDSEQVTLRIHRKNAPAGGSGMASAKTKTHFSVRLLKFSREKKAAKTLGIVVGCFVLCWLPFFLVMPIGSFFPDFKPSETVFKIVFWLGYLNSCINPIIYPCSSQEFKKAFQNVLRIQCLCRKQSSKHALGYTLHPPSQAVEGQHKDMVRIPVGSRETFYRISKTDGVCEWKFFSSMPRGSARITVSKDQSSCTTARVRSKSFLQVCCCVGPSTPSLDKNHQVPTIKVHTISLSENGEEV

[18] = target: receptors (Bioprint panel) (Homo sapiens, UniProt P50052); assay type: binding; conditions: A[…] AT2 (h) (agonist radioligand); 10 μM; read-out: % Inhibition of Control Specific Binding
Chain of receptors (Bioprint panel) (Homo sapiens, UniProt P50052) (P50052 whole entry): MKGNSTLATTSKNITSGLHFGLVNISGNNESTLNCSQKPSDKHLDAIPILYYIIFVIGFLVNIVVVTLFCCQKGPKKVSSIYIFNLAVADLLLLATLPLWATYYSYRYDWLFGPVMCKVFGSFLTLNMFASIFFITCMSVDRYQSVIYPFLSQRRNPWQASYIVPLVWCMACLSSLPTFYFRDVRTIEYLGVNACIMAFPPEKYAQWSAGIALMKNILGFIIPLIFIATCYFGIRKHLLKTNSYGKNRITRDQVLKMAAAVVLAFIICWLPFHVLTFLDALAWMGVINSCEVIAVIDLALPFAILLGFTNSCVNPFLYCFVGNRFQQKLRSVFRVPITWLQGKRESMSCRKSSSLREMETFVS

[19] = target: receptors (Bioprint panel) (Homo sapiens, UniProt Q9Y5N1); assay type: binding; conditions: HISTAMINE H3 (h) (agonist radioligand); 10 μM; read-out: % Inhibition of Control Specific Binding
Chain of receptors (Bioprint panel) (Homo sapiens, UniProt Q9Y5N1) (Q9Y5N1 whole entry): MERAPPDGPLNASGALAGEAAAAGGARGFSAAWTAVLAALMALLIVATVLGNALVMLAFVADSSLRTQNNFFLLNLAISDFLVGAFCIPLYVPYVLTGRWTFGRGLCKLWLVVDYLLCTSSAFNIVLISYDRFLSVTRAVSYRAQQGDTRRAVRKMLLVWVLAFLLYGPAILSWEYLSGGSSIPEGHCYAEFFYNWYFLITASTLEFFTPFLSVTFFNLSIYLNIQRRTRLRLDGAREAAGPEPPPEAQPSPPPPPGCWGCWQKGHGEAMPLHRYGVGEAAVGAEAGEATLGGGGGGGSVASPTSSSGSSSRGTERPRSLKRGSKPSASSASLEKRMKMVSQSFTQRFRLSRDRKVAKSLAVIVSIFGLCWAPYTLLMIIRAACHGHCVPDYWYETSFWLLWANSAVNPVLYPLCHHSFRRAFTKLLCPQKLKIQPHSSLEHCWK

[20] = target: receptors (Bioprint panel) (Homo sapiens, UniProt P30872); assay type: binding; conditions: SOMASTATIN sst1 (h) (agonist radioligand); 10 μM; read-out: % Inhibition of Control Specific Binding
[21] = target: receptors (Bioprint panel) (Homo sapiens, UniProt P24530); assay type: binding; conditions: […] (h) (agonist radioligand); 10 μM; read-out: % Inhibition of Control Specific Binding
[22] = target: receptors (Bioprint panel) (Homo sapiens, UniProt P41597); assay type: binding; conditions: CHEMOKINES CCR2 (h) (agonist radioligand); 10 μM; read-out: % Inhibition of Control Specific Binding
[23] = target: receptors (Bioprint panel) (Homo sapiens, UniProt O43193); assay type: binding; conditions: motilin(h) (agonist radioligand); 10 μM; read-out: % Inhibition of Control Specific Binding
[24] = target: receptors (Bioprint panel) (Homo sapiens, UniProt P46098); assay type: binding; conditions: read-out: % Inhibition of Control Specific Binding
[25] = target: receptors (Bioprint panel) (Homo sapiens, UniProt P08173); assay type: binding; conditions: […] M4 (h) (antagonist radioligand); 10 μM; read-out: % Inhibition of Control Specific Binding
[26] = target: receptors (Bioprint panel) (Homo sapiens, UniProt P30518); assay type: binding; conditions: VASOPRESSIN V2 (h) (agonist radioligand); 10 μM; read-out: % Inhibition of Control Specific Binding
[27] = target: receptors (Bioprint panel) (Rattus norvegicus, UniProt Q02294); assay type: binding; conditions: Ca2+ channel (N) (antagonist radioligand); 10 μM; read-out: % Inhibition of Control Specific Binding
Chain of receptors (Bioprint panel) (Rattus norvegicus, UniProt Q02294) (Q02294 whole entry): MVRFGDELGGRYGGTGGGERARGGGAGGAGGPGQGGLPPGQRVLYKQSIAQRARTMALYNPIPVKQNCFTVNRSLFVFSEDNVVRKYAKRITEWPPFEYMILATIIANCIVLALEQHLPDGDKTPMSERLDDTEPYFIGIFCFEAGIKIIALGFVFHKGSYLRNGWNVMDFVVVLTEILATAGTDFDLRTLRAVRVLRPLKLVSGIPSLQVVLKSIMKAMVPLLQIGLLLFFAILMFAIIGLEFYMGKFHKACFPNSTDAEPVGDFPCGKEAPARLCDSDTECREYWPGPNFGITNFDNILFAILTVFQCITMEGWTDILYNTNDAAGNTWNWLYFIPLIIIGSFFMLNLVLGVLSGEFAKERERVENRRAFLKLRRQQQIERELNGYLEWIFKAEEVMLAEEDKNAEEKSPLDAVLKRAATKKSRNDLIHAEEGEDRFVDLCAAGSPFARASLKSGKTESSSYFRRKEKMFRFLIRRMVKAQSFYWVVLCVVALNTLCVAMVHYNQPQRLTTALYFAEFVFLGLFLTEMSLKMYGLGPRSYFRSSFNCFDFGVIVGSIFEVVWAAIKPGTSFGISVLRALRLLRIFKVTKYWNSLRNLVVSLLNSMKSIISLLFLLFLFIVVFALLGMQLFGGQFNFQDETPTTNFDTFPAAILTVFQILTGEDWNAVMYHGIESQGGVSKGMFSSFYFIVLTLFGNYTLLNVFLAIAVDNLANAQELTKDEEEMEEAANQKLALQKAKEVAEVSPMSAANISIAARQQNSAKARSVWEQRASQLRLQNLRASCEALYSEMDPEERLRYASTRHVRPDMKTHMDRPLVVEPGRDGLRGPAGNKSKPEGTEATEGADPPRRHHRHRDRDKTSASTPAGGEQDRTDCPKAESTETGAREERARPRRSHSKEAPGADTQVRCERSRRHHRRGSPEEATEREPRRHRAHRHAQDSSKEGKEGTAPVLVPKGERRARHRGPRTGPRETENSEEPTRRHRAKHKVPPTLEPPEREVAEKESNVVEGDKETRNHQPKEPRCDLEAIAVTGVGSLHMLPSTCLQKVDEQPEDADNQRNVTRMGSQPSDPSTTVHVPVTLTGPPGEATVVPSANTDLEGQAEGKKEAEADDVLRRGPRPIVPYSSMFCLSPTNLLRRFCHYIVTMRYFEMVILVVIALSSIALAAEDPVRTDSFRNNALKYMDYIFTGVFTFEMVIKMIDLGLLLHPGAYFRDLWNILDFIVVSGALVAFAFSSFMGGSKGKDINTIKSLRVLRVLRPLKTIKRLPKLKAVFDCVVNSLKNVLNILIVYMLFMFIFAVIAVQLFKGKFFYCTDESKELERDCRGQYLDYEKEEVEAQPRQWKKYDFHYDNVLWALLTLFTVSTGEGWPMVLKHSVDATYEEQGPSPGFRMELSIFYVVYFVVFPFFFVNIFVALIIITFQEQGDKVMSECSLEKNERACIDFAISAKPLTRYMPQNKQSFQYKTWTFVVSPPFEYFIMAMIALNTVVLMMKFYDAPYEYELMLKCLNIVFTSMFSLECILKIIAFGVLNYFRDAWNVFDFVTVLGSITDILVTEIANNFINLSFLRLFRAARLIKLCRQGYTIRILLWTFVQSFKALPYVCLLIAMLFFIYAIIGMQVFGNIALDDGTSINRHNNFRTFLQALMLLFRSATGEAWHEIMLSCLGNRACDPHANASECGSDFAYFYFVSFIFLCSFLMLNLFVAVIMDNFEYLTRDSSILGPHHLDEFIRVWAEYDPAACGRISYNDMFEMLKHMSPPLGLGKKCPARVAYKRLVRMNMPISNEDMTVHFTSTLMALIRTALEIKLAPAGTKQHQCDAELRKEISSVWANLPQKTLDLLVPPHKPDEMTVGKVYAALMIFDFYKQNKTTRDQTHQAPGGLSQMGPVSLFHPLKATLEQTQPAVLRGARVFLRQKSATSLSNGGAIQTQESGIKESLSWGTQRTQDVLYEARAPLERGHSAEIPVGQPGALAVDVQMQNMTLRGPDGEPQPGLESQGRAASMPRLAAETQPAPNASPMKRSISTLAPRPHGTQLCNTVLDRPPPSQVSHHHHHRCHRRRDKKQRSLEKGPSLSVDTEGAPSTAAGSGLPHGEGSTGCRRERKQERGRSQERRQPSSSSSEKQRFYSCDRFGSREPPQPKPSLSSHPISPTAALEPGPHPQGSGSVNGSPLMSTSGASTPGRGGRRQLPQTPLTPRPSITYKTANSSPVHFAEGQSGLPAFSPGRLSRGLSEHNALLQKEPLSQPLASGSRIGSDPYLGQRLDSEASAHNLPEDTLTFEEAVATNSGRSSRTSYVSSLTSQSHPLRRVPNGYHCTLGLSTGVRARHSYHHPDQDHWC

Question: `CC(C)=CCC[C@H](CO)[C@@H]1CC[C@@H](C)c2c1cc(C)c(O)c2O` [Compound 1, 7,8,18-trihydroxyserrulat-14-ene] was tested. Which inhibition at 10 µM (enzymes (Bioprint panel) [1]) did it give?
Answer: Its inhibition at 10 µM is -15%.

Question: And the inhibition at 10 µM (enzymes (Bioprint panel) [2])?
Answer: Its inhibition at 10 µM is -3%.

Question: And the inhibition at 10 µM (enzymes (Bioprint panel) [3])?
Answer: The inhibition at 10 µM was -3%.

Question: What about the inhibition at 10 µM (enzymes (Bioprint panel) [4]) of the same molecule?
Answer: Its inhibition at 10 µM is 15%.

Question: And the inhibition at 10 µM (enzymes (Bioprint panel) [5])?
Answer: The inhibition at 10 µM was 9%.

Question: And the inhibition at 10 µM (enzymes (Bioprint panel) [6])?
Answer: Its inhibition at 10 µM is 32%.

Question: What about the “% Inhibition of Control Values” (enzymes (Bioprint panel) [7]) of the same molecule?
Answer: The value was −6%.

Question: What about the inhibition at 10 µM (enzymes (Bioprint panel) [8]) of the same molecule?
Answer: The inhibition at 10 µM was 1%.

Question: What about the “% Inhibition of Control Values” (enzymes (Bioprint panel) [9]) of the same molecule?
Answer: Its value is 31%.

Question: What about the inhibition at 10 µM (enzymes (Bioprint panel) [10]) of the same molecule?
Answer: The inhibition at 10 µM was 6%.

Question: What about the inhibition at 10 µM [11] of the same molecule?
Answer: The inhibition at 10 µM was 60%.

Question: And the inhibition at 10 µM [12]?
Answer: The inhibition at 10 µM was 59%.

Question: And the inhibition at 10 µM [13]?
Answer: Its inhibition at 10 µM is 46%.

Question: What about the inhibition at 10 µM [14] of the same molecule?
Answer: The inhibition at 10 µM was 6%.

Question: What about the inhibition at 10 µM [15] of the same molecule?
Answer: Its inhibition at 10 µM is 62%.

Question: What about the inhibition at 10 µM [16] of the same molecule?
Answer: Its inhibition at 10 µM is 32%.

Question: And the inhibition at 10 µM [17]?
Answer: The inhibition at 10 µM was 17%.

Question: What about the inhibition at 10 µM [18] of the same molecule?
Answer: Its inhibition at 10 µM is 54%.

Question: And the inhibition at 10 µM [19]?
Answer: The inhibition at 10 µM was 10%.

Question: What about the inhibition at 10 µM [20] of the same molecule?
Answer: Its inhibition at 10 µM is 18%.

Question: What about the inhibition at 10 µM [21] of the same molecule?
Answer: Its inhibition at 10 µM is 40%.

Question: What about the inhibition at 10 µM [22] of the same molecule?
Answer: Its inhibition at 10 µM is 48%.

Question: And the inhibition at 10 µM [23]?
Answer: Its inhibition at 10 µM is -12%.

Question: What about the inhibition at 10 µM [24] of the same molecule?
Answer: The inhibition at 10 µM was -2%.

Question: What about the inhibition at 10 µM [25] of the same molecule?
Answer: The inhibition at 10 µM was 19%.

Question: What about the inhibition at 10 µM [26] of the same molecule?
Answer: Its inhibition at 10 µM is 11%.

Question: And the inhibition at 10 µM [27]?
Answer: The inhibition at 10 µM was 5%.
